≈ marks a conversion by molar mass, not a printed value.
Legend:
[1] = test system: Botrtyis cinerea (Bc); test: Growth inhibition assay of fungal pathogens, Bc; assay type: cell-based; details: 48 hours; read-out: Concentration at 90% Inhibition, Bc
Outline: (§1)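 Spores in 17% V8 liquid medium were exposed to compound at final 50, 10 and 2 ppm or 2, 0.4 and 0.08 ppm with 2% DMSO. After 48 h, OD600 (blank-subtracted) and visual ratings were compared with the 2% DMSO control to give percent growth inhibition.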

[2] = test system: Phytophthora capsici (Pc); test: Growth inhibition assay of fungal pathogens, Pc; assay type: cell-based; details: 48 hours, read-out: Concentration at 90% Inhibition, Pc
Outline: as §1

[3] = test system: Fusarium virguliforme (Fv); test: Growth inhibition assay of fungal pathogens, Fv; assay type: cell-based; details: 48 hours, read-out: Concentration at 90% Inhibition, Fv
Outline: as §1

[4] = test system: Rhizoctonia solani (Rs); test: Growth inhibition assay of fungal pathogens, Rs; assay type: cell-based; details: 48 hours, read-out: Concentration at 90% Inhibition, Rs
[5] = target: Human ACC2 (Homo sapiens, UniProt O00763); test: In vitro ACC2 inhibition assay (ADP-Glo), human ACC2; assay type: biochemical; details: 5 nM ACC2, 20 μM ATP, 20 μM acetyl-CoA
Chain of Human ACC2 (O00763 whole entry): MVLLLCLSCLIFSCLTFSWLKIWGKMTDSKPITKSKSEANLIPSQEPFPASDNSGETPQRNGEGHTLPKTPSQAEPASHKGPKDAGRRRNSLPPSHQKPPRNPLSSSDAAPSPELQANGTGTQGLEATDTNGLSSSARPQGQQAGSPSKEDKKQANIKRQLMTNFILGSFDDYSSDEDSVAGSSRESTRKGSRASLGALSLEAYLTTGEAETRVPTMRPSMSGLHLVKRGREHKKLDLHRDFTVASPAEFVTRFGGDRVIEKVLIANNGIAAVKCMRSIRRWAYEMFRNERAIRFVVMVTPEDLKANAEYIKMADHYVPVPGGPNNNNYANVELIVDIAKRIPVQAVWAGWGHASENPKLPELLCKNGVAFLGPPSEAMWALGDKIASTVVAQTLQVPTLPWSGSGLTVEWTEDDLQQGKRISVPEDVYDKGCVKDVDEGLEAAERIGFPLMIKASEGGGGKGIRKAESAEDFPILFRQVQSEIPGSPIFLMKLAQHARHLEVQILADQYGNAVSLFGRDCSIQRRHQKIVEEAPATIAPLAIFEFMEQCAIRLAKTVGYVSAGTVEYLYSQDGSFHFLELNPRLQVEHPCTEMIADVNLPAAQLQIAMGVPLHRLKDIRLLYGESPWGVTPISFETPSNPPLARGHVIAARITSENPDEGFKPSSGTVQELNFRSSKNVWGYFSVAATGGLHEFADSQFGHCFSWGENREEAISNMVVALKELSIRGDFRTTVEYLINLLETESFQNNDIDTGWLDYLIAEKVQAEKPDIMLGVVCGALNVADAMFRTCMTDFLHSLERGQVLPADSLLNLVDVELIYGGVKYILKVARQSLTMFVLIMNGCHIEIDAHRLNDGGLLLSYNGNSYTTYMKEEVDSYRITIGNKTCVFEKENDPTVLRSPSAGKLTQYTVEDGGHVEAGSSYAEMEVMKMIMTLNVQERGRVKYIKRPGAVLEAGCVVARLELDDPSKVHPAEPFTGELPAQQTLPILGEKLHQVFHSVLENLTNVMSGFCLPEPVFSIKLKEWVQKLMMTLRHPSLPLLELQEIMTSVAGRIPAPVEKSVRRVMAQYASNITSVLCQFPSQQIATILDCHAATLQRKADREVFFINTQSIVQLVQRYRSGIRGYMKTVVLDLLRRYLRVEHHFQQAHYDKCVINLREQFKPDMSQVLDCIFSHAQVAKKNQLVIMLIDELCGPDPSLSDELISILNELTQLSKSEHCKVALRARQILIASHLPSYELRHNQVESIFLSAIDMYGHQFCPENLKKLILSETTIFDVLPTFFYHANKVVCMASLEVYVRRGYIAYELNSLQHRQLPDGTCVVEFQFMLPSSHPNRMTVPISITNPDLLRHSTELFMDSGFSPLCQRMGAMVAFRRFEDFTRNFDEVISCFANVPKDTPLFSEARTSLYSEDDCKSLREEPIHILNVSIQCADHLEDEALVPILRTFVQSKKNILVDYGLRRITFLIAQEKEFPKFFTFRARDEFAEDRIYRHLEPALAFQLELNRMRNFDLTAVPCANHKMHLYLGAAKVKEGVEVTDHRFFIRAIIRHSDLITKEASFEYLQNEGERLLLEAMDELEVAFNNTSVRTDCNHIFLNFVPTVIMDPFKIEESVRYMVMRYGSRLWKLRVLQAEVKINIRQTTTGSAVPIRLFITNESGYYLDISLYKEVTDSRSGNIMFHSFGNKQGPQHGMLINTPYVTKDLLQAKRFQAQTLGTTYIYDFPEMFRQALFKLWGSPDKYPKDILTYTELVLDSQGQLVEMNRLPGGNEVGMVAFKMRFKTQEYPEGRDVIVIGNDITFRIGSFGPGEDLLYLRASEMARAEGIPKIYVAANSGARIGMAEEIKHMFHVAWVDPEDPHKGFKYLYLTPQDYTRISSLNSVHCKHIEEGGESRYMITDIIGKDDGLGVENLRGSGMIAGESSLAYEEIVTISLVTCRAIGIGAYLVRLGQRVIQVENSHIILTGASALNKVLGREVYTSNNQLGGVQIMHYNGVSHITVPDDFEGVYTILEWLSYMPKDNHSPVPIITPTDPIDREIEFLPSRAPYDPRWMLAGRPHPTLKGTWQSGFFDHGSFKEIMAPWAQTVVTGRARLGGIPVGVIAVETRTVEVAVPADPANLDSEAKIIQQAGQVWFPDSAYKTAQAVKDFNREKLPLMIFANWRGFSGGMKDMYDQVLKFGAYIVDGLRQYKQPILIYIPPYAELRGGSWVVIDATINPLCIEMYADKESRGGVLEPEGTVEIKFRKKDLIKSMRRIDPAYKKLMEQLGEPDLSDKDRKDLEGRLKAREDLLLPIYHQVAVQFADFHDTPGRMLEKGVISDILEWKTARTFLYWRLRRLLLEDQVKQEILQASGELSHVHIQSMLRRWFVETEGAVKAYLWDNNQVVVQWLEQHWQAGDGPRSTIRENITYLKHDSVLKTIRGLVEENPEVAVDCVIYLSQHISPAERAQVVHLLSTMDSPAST

[6] = test system: Fusarium moniliforme (Fm); test: Growth inhibition assay of fungal pathogens, Fm; assay type: cell-based; details: Fusarium verticillioides; 48 hours; read-out: Concentration at 90% Inhibition, Fm
Outline: as §1

[7] = test system: C. albicans ATCC 90028; test: Anti-Fungal Activity Assay (broth microtiter MIC), C. albicans; assay type: cell-based, Candida albicans; details: Candida albicans, ATCC90028, 48 h, 3 replicates; MIC recorded at 48 h; read-out: MIC C. albicans ATCC 90028
Outline: (§2)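 MIC by visual comparison with growth control, read at 48 h (soraphen also at 24 h). Inoculum: colonies from overnight Sabouraud dextrose agar plates at 35° C, suspended in RPMI 1640+MOPS, density from standard curves. Microtiter broth dilution per CLSI M27-A3; compounds from 1 mg/mL DMSO stocks.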

[8] = test system: Septoria tritici (St); test: Growth inhibition assay of fungal pathogens, St; assay type: cell-based; details: Zymoseptoria tritici; 48 hours; read-out: Concentration at 90% Inhibition, St
Outline: as §1

[9] = test system: C. krusei ATCC 6258; test: Anti-Fungal Activity Assay (broth microtiter MIC), C. krusei; assay type: cell-based, Candida krusei; details: Pichia kudriavzevii, ATCC6258, 48 h, 3 replicates; MIC recorded at 48 h; read-out: MIC C. krusei ATCC 6258
Outline: as §2

[10] = test system: Blumeria graminis f sp. hordei; test: Foliar protection test, barley powdery mildew control; assay type: in vivo, Blumeria graminis f sp. hordei on Hordeum vulgare cv. Perry; details: 168 h, compound concentration 50 ppm, foliar spray, evaluated 7 days after inoculation, read-out: Barley Powdery Mildew Control at 50 ppm
Outline: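 Barley cv. Perry at first true leaf (6 days) sprayed to wetness on both leaf sides with compound in 5% acetone/0.005% Tween 80, typically at 200, 100, 50, 10 or 2 ppm. Inoculated 24 h later by shaking spores from colonized plants; kept at 20-22 °C, 70% RH. Mildew colonization scored 7 days later as percent control.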

[11] = compound concentration 10 ppm, foliar spray, evaluated 7 days after inoculation
[12] = test system: Diplodia maydis (Dm); test: Growth inhibition assay of fungal pathogens, Dm; assay type: cell-based; details: Stenocarpella maydis; 48 hours; read-out: Concentration at 90% Inhibition, Dm
Outline: as §1

[13] = target: Fungal ACC2 (UniProt Q00955); details: read-out: Fungal ACC2 (IC50, in vitro ACC2 inhibition)
Chain of Fungal ACC2 (Q00955 whole entry): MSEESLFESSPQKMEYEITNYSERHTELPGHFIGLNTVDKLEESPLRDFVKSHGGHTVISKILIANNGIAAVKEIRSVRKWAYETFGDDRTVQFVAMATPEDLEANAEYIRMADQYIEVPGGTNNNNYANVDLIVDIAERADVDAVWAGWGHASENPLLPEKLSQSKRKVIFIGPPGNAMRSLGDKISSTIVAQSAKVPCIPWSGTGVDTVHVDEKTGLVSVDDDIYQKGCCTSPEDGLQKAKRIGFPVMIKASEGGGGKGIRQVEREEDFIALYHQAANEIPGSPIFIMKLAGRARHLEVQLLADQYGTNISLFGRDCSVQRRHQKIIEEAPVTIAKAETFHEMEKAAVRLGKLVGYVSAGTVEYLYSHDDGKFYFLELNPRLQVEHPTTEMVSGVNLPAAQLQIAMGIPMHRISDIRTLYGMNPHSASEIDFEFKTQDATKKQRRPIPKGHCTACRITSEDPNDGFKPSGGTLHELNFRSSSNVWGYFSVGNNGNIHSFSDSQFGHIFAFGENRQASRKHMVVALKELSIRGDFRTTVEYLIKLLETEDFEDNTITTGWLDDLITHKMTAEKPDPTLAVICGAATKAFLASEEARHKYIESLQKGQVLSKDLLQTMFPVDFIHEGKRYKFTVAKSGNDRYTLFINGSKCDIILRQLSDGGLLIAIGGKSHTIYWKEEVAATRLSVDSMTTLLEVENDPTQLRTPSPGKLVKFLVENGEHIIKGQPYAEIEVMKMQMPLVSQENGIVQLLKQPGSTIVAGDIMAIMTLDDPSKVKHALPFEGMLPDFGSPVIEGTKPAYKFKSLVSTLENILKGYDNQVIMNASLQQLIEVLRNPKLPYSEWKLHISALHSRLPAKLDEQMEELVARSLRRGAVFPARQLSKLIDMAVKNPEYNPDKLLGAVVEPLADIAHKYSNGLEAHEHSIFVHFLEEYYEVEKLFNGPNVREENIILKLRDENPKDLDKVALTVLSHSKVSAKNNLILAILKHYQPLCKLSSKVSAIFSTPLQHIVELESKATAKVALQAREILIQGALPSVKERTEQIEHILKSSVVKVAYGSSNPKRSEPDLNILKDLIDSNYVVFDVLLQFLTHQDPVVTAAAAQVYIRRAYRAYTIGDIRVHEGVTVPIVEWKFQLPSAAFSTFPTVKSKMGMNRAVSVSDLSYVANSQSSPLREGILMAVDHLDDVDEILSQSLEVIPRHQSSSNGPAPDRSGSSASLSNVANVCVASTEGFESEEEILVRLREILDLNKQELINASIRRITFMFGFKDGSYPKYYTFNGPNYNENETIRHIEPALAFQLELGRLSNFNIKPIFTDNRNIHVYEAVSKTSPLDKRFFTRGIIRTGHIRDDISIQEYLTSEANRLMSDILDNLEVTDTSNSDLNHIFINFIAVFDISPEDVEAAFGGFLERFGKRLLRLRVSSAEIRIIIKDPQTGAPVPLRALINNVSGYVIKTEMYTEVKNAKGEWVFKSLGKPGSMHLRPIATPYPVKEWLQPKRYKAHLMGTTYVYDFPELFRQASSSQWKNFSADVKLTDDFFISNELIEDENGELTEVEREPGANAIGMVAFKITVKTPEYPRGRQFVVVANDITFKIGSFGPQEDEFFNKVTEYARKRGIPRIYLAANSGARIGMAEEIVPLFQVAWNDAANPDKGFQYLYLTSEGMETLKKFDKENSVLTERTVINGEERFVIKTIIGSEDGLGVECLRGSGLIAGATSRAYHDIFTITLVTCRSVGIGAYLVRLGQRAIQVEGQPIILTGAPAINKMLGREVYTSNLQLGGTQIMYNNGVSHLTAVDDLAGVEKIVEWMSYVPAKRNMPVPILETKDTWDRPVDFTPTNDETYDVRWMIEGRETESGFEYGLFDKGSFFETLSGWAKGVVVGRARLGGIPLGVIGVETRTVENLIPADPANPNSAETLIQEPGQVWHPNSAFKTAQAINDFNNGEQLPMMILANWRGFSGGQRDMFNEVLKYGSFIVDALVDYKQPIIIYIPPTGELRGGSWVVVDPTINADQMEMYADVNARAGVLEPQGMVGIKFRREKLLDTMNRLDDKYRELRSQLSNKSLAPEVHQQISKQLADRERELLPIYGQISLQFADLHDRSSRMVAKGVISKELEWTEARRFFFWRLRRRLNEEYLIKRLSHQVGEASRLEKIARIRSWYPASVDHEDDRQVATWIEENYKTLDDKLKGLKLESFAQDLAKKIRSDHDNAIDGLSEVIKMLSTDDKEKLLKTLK

[14] = test system: Collectotrichum graminicola (Cg); test: Growth inhibition assay of fungal pathogens, Cg; assay type: cell-based; details: 48 hours; read-out: Concentration at 90% Inhibition, Cg
Outline: as §1

[15] = test system: C. parapsilosis ATCC 22019; test: Anti-Fungal Activity Assay (broth microtiter MIC), C. parapsilosis; assay type: cell-based, Candida parapsilosis; details: Lodderomyces parapsilosis, ATCC22019, 48 h, 3 replicates; MIC recorded at 48 h; read-out: MIC C. parapsilosis ATCC 22019
Outline: as §2

Row | SMILES | IC90 [1] [mg/L] | IC90 [2] [mg/L] | IC90 [3] [mg/L] | IC90 [4] [mg/L] | IC50 [5] [nM] | IC90 [6] [mg/L] | MIC [7] [mg/L] | IC90 [8] [mg/L] | MIC [9] [mg/L] | pest or weed control at 50 ppm [10] [%] | Barley Powdery Mildew Control at 10 ppm [11] | IC90 [12] [mg/L] | IC50 [13] [nM] | IC90 [14] [mg/L] | MIC [15] [mg/L]
1 | COc1ccc(F)cc1[C@H](Cn1c(=O)n([C@@H]2CCCN(C)C2=O)c(=O)c2c(C)c(-n3nccn3)sc21)OCCO [Compound I-73, 1-((R)-2-(5-fluoro-2-methoxyphenyl)-2-(2-hydroxy-ethoxy)ethyl)-5-methyl-3-((R)-1-methyl-2-oxopiperidin-3-yl)-6-(2H-1,2,3-triazol-2-yl)thieno[2,3-d]pyrimidine-2,4(1H,3H)-dione] | 10 (≈ 17.5 µM) | > 50 | 2 (≈ 3.49 µM) | 2 (≈ 3.49 µM) | 10 to 100 | 2 (≈ 3.49 µM) | 2.1 to 4 (≈ 3.67 to 6.99 µM) | > 50 | 2.1 to 4 (≈ 3.67 to 6.99 µM) | 50 to 69 | D (provided a compound having <25% control of barley powdery mildew) | 2 (≈ 3.49 µM) | 0.7 to 2 | 2 (≈ 3.49 µM) | 2.1 to 4 (≈ 3.67 to 6.99 µM)
2 | COc1ccc(F)cc1[C@H](Cn1c(=O)n([C@@H]2CCCNC2=O)c(=O)c2c(C)c(-n3nccn3)sc21)OCCC#N [Compound I-111, 3-((R)-1-(5-fluoro-2-methoxyphenyl)-2-(5-methyl-2,4-dioxo-3-((R)-2-oxopiperidin-3-yl)-6-(2H-1,2,3-triazol-2-yl)-3,4-dihydrothieno[2,3-d]pyrimidin-1(2H)-yl)ethoxy)propanenitrile] | 2 (≈ 3.52 µM) | > 50 | 10 (≈ 17.6 µM) | 2 (≈ 3.52 µM) | 2 to 10 | 2 (≈ 3.52 µM) | 2.1 to 4 (≈ 3.7 to 7.05 µM) | > 50 | 2.1 to 4 (≈ 3.7 to 7.05 µM) | 50 to 69 | C (provided a compound having from 25 to 49% control of barley powdery mildew) | 10 (≈ 17.6 µM) | 0.7 to 2 | 10 (≈ 17.6 µM) | 2.1 to 4 (≈ 3.7 to 7.05 µM)
3 | COc1ccc(F)cc1[C@H](Cn1c(=O)n([C@H]2CCCNC2=O)c(=O)c2c(C)c(-n3nccn3)sc21)OCCO [Compound I-70, 1-((R)-2-(5-fluoro-2-methoxyphenyl)-2-(2-hydroxy-ethoxy)ethyl)-5-methyl-3-((S)-2-oxopiperidin-3-yl)-6-(2H-1,2,3-triazol-2-yl)thieno[2,3-d]pyrimidine-2,4(1H,3H)-dione] | 2 (≈ 3.58 µM) | > 50 | 2 (≈ 3.58 µM) | 10 (≈ 17.9 µM) | 10 to 100 | 2 (≈ 3.58 µM) | 2.1 to 4 (≈ 3.76 to 7.16 µM) | > 50 | 2.1 to 4 (≈ 3.76 to 7.16 µM) | 50 to 69 | D (provided a compound having <25% control of barley powdery mildew) | > 50 | 0.7 to 2 | 10 (≈ 17.9 µM) | 2.1 to 4 (≈ 3.76 to 7.16 µM)
4 | COCCO[C@@H](Cn1c(=O)n([C@@H]2CCNC2=O)c(=O)c2c(C)c(-n3cccn3)sc21)c1cc(F)ccc1OC [Compound I-42, 1-((R)-2-(5-fluoro-2-methoxyphenyl)-2-(2-methoxy-ethoxy)ethyl)-5-methyl-3-((R)-2-oxopyrrolidin-3-yl)-6-(1H-pyrazol-1-yl)thieno[2,3-d]pyrimidine-2,4(1H,3H)-dione] | > 50 | > 50 | > 50 | > 50 | 10 to 100 | > 50 | 2.1 to 4 (≈ 3.77 to 7.17 µM) | > 50 | 2.1 to 4 (≈ 3.77 to 7.17 µM) | 25 to 49 | D (provided a compound having <25% control of barley powdery mildew) | > 50 | 2 to 10 | > 50 | 2.1 to 4 (≈ 3.77 to 7.17 µM)
5 | COCCO[C@@H](Cn1c(=O)n([C@H]2CCCN(C)C2=O)c(=O)c2c(C)c(-n3cccn3)sc21)c1cc(F)ccc1OC [Compound I-47, 1-((R)-2-(5-fluoro-2-methoxyphenyl)-2-(2-methoxy-ethoxy)ethyl)-5-methyl-3-((S)-1-methyl-2-oxopiperidin-3-yl)-6-(I H-pyrazol-1-yl)thieno[2,3-d]pyrimidine-2,4(1H,3H)-dione] | > 50 | > 50 | > 50 | > 50 | 100 to 1000 | > 50 | 2.1 to 4 (≈ 3.59 to 6.83 µM) | > 50 | 2.1 to 4 (≈ 3.59 to 6.83 µM) | 50 to 69 | D (provided a compound having <25% control of barley powdery mildew) | > 50 | 2 to 10 | > 50 | 2.1 to 4 (≈ 3.59 to 6.83 µM)
6 | COc1ccc(F)cc1[C@H](Cn1c(=O)n([C@H]2CCN(C)C2=O)c(=O)c2c(C)c(-n3nccn3)sc21)OCCO [Compound I-82, 1-((R)-2-(5-fluoro-2-methoxyphenyl)-2-(2-hydroxy-ethoxy)ethyl)-5-methyl-3-((S)-1-methyl-2-oxopyrrolidin-3-yl)-6-(2H-1,2,3-triazol-2-yl)thieno[2,3-d]pyrimidine-2,4(1H,3H)-dione] | 2 (≈ 3.58 µM) | > 50 | 2 (≈ 3.58 µM) | 2 (≈ 3.58 µM) | 2 to 10 | 2 (≈ 3.58 µM) | 2.1 to 4 (≈ 3.76 to 7.16 µM) | > 50 | 2.1 to 4 (≈ 3.76 to 7.16 µM) | 25 to 49 | D (provided a compound having <25% control of barley powdery mildew) | 10 (≈ 17.9 µM) | 0.7 to 2 | 10 (≈ 17.9 µM) | 2.1 to 4 (≈ 3.76 to 7.16 µM)

Source: US20190330224A1, “ACC INHIBITORS AND USES THEREOF” (Gilead Apollo, LLC, priority 2015, published 2019)
